Measured values from patent publication US11453690B2, “Receptor inhibitor, pharmaceutical composition comprising same, and use thereof” (BEIJING TIDE PHARMACEUTICAL CO., LTD., priority 2018, dated 2022).

Each compound was assayed against AT2 Receptor (AT2R) (Homo sapiens (Human), UniProt P50052) (assay: Measurement of inhibitory activity on AT2 receptor (Tag-lite HTRF, Tb-labeled AT2R cells, angiotensin receptor red agonist)). Conditions: 1 h room temperature.
Format: binding
Method: Measurement of Inhibitory Activity on AT1 Receptor ([…])/AT2 Receptor (AT2R)
Through the following steps, the inhibitory activity of the compound on AT1R/AT2R (IC50 value) was determined:
1) An appropriate amount of 1×TLB (Tag-lite Buffer) was prepared and well mixed for use.
2) The compound was diluted by 10 times with ddH2O or DMSO. The compound was then dilute to 4 times of the working concentration with 1×TLB and mixed well for use.
3) 8600 nM Tag-lite angiotensin receptor red agonist was diluted to 12 nM (4×Kd) with 1×TLB.
4) 5 ml 1×TLB was taken into a 15 ml centrifuge tube.
5) After thawing 1 tube of Tb-labeled AT1R/AT2R cells in a 37° C. water bath, the cells were quickly transferred to the 1×TLB in step 4), mixed gently, and centrifuged at 1200 g for 5 minutes at room temperature.
6) The supernatant was aspirated gently, and the cells were resuspended and mixed in 2.7 ml 1×TLB, and then placed at room temperature until use.
7) 10 μl cells were added to all test wells, and 5 μl 4× working solution of the compound from step 2) was added to the corresponding test wells. 5 μl 4× Tag-lite angiotensin receptor red agonist well diluted in step 3) was added to all test wells.
8) After leaving the reaction plate at room temperature for 1 h, data were measured and analyzed using Envision HTRF Reader, and the half inhibitory concentration (IC50) of the compound on AT1R/AT2R was calculated with the GraphPad Prism four-parameter equation.

Sequence of AT2 Receptor (AT2R) (P50052 whole entry): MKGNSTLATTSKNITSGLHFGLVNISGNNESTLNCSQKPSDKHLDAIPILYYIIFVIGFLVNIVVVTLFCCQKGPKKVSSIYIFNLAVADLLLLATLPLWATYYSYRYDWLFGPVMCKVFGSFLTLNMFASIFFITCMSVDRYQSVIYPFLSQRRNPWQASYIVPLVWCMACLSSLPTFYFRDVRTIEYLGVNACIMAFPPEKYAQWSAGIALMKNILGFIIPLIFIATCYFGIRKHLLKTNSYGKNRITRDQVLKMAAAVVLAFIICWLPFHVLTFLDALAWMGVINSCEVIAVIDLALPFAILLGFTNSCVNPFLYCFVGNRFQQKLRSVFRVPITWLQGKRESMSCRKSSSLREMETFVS

Row | SMILES | IC50 [nM]
1 | O=C(O)[C@H]1[C@@H]2CC[C@H](CN1C(=O)N(c1ccccc1)c1ccccc1)N2C(=O)N(c1ccccc1)c1ccccc1 [Compound C13, (1S,2R,5R)-3,8-bis (diphenylcarbamoyl)-3,8-diazabicyclo [3.2.1]octane-2-carboxylic acid] | 22.2
2 | CCN(Cc1ccoc1)C(=O)N1[C@H]2CC[C@@H]1[C@@H](C(=O)O)N(C(=O)N(c1ccccc1)c1ccccc1)C2 [Compound C260, (1R,2S,5S)-3-(diphenylcarbamoyl)-8-(ethyl (furan-3-ylmethyl)carbamoyl)-3,8-diazabicyclo [3.2.1]octane-2-carboxylic acid] | 29.6
3 | O=C(O)[C@@H]1[C@H]2CC[C@@H](CN1C(=O)C(c1ccccc1)c1ccccc1)N2C(=O)CCc1ccccc1 [Compound C222, (1R,2S,5S)-3-(2,2-diphenylacetyl)-8-(3-phenylpropionyl)-3,8-diazabicyclo [3.2.1]octane-2-carboxylic acid] | 11.7
4 | O=C(O)[C@@H]1[C@H]2CC[C@@H](CN1C(=O)N(c1ccccc1)c1ccccc1)N2C(=O)N(Cc1ccsc1)CC1CC1 [Compound C205, (1R,2S,5S)-8-((cyclopropylmethyl) (thiophene-3-ylmethyl)carbamoyl)-3-(diphenylcarbamoyl)-3,8-diazabicyclo [3.2.1]octane-2-carboxylic acid] | 42.8
5 | Cc1cc(CN(C)C(=O)N2[C@H]3CC[C@@H]2[C@@H](C(=O)O)N(C(=O)N(c2ccccc2)c2ccccc2)C3)cs1 [Compound C185] | 38.8
6 | O=C(O)[C@@H]1[C@H]2CC[C@@H](CN1C(=O)N(c1ccccc1)c1ccccc1)N2C(=O)/C=C/c1ccccc1 [Compound C174, (1R,2S,5S)-8-cinnamoyl-3-(diphenylcarbamoyl)-3,8-diazabicyclo [3.2.1]octane-2-carboxylic acid] | 226
7 | CCN(Cc1csc2ccccc12)C(=O)N1[C@H]2CC[C@@H]1[C@@H](C(=O)O)N(C(=O)N(c1ccccc1)c1ccccc1)C2 [Compound C245, (1R,2S,5S)-8-((benzo[b]thiophene-3-ylmethyl) (ethyl)carbamoyl)-3-(diphenylcarbamoyl)-3,8-diazabicyclo [3.2.1]octane-2-carboxylic acid] | 10.5
8 | O=C(O)[C@@H]1[C@@H]2CC[C@@H](CC2OCc2cccc(Cl)c2)N1C(=O)C(c1ccccc1)c1ccccc1 (stereo partly drawn) [Compound C291, (1S,3S,4S)-5-((3-chloro-benzyl)oxy)-2-(2,2-diphenylacetyl)-2-azabicyclo [2.2.2]octane-3-carboxylic acid] | 765
9 | CCN(Cc1ccc(Cl)cc1)C(=O)N1[C@H]2CC[C@@H]1[C@@H](C(=O)O)N(C(=O)N(c1ccccc1)c1ccccc1)C2 [Compound C217, (1R,2S,5S)-8-((4-chlorobenzyl) (ethyl)carbamoyl)-3-(diphenylcarbamoyl)-3,8-diazabicyclo [3.2.1]octane-2-carboxylic acid] | 9.13
10 | O=C(O)[C@@H]1[C@H]2CC[C@@H](CN1C(=O)N(c1ccccc1)c1ccccc1)N2C(=O)N(Cc1ccccc1)c1ccccc1 [Compound C134, (1R,2S,5S)-8-(benzyl(phenyl)carbamoyl)-3-(diphenylcarbamoyl)-3,8-diazabicyclo [3.2.1]octane-2-carboxylic acid] | 322
11 | CC(CC(=O)N1[C@H]2CC[C@@H]1[C@@H](C(=O)O)N(C(=O)C(c1ccccc1)c1ccccc1)C2)c1ccccc1 (stereo partly drawn) [Compound C223, (1R,2S,5S)-3-(2,2-diphenylacetyl)-8-(3-phenylbutyryl)-3,8-diazabicyclo [3.2.1]octane-2-carboxylic acid] | 7.87
12 | O=C(O)[C@H]1[C@@H]2CC[C@H](CN1C(=O)OCc1ccccc1)N2C(=O)C(c1ccccc1)c1ccccc1 [Compound C75, (1S,2R,5R)-3-((benzyloxy)carbonyl)-8-(2,2-diphenylacetyl)-3,8-diazabicyclo[3. 2.1]octane-2-carboxylic acid] | 54
13 | CCN(Cc1cccs1)C(=O)N1[C@H]2CC[C@@H]1[C@@H](C(=O)O)N(C(=O)N(c1ccccc1)c1ccccc1)C2 [Compound C201, (1R,2S,5S)-3-(diphenylcarbamoyl)-8-(ethyl(thiophene-2-ylmethyl)carbamoyl)-3,8-diazabicyclo [3.2.1]octane-2-carboxylic acid] | 18.4
14 | C/C(=C\c1ccccc1)C(=O)N1[C@H]2CC[C@@H]1[C@@H](C(=O)O)N(C(=O)C(c1ccccc1)c1ccccc1)C2 [Compound C231, (1R,2S,5S)-3-(2,2-diphenylacetyl)-8-((E)-2-methyl-3-phenylacryloyl)-3,8-diazabicyclo [3.2.1]octane-2-carboxylic acid] | 103
15 | Cn1cc(-c2ccccc2C(=O)N2[C@H]3CC[C@@H]2[C@@H](C(=O)O)N(C(=O)N(c2ccccc2)c2ccccc2)C3)cn1 [Compound C241, (1R,2S,5S)-3-(diphenylcarbamoyl)-8-(2-(1-methyl-1H-pyrazole-4-yl)benzoyl)-3,8-diazabicyclo [3.2.1]octane-2-carboxylic acid] | 156
16 | O=C(O)[C@@H]1[C@H]2CC[C@@H](CN1C(=O)N(c1ccccc1)c1ccccc1)N2C(=O)N(Cc1ccccc1)Cc1ccccc1 [Compound C133, (1R,2S,5S)-8-(dibenzylcarbamoyl)-3-(diphenylcarbamoyl)-3,8-diazabicyclo[3.2.1] octane-2-carboxylic acid] | 243
17 | C=CCc1ccc(CN(C)C(=O)N2[C@H]3CC[C@@H]2[C@@H](C(=O)O)N(C(=O)N(c2ccccc2)c2ccccc2)C3)cc1 [Compound C235, (1R,2S,5S)-8-((4-allylbenzyl)(methyl)carbamoyl)-3-(diphenylcarbamoyl)-3,8-diazabicyclo[3.2.1]octane-2-carboxylic acid] | 6.78
18 | Cc1ccccc1CN(C)C(=O)N1[C@H]2CC[C@@H]1[C@@H](C(=O)O)N(C(=O)N(c1ccccc1)c1ccccc1)C2 [Compound C163, (1R,2S,5S)-3-(diphenylcarbamoyl)-8-(methyl (2-methylbenzyl)carbamoyl)-3,8-diazabicyclo [3.2.1]octane-2-carboxylic acid] | 65.6
19 | Cc1ccc(CN(C(=O)N2[C@H]3CC[C@@H]2[C@@H](C(=O)O)N(C(=O)N(c2ccccc2)c2ccccc2)C3)C2CC2)s1 [Compound C204] | 4.93
20 | Cc1cc(CN(C)C(=O)N2[C@H]3CC[C@@H]2[C@@H](C(=O)O)N(C(=O)C(c2ccccc2)c2ccccc2)C3)cs1 [Compound C277, (1R,2S,5S)-3-(2,2-diphenylacetyl)-8-(methyl((5-methylthiophen-3-yl)methyl)carbamoyl)-3,8-diazabicyclo [3.2.1]octane-2-carboxylic acid] | 10.5
21 | CN(Cc1cc2ccccc2s1)C(=O)N1[C@H]2CC[C@@H]1[C@@H](C(=O)O)N(C(=O)N(c1ccccc1)c1ccccc1)C2 [Compound C271] | 14.5
22 | O=C(O)[C@@H]1[C@H]2CC[C@@H](CN1C(=O)N(c1ccccc1)c1ccccc1)N2C(=O)N(Cc1cccs1)C1CC1 [Compound C200, (1R,2S,5S)-8-(cyclopropyl (thiophene-2-ylmethyl)carbamoyl)-3-(diphenylcarbamoyl)-3,8-diazabicyclo [3.2.1]octane-2-carboxylic acid] | 3.25
23 | O=C(O)[C@@H]1[C@@H]2CC[C@@H](CC2Oc2ccc([N+](=O)[O-])cc2)N1C(=O)C(c1ccccc1)c1ccccc1 (stereo partly drawn) [Compound C290, (1S,3S,4S)-2-(2,2-diphenyl-acetyl)-5-(4-nitrophenoxy)-2-azabicyclo [2.2.2]octane-3-carboxylic acid] | 561
24 | O=C(O)[C@@H]1[C@H]2CC[C@@H](CN1C(=O)N(c1ccccc1)c1ccccc1)N2C(=O)N1CCC[C@H]1c1cc(F)ccc1F [Compound C142, (1R,2S,5S)-8-((S)-2-(2,5-difluorophenyl)pyrrolidine-1-carbonyl)-3-(diphenylcarbamoyl)-3,8-diazabicyclo [3.2.1]octane-2-carboxylic acid] | 654
25 | CN(Cc1ccc2ncccc2c1)C(=O)N1[C@H]2CC[C@@H]1[C@@H](C(=O)O)N(C(=O)N(c1ccccc1)c1ccccc1)C2 [Compound C266, (1R,2S,5S)-3-(diphenylcarbamoyl)-8-(methyl (quinoline-6-ylmethyl)carbamoyl)-3,8-diazabicyclo [3.2.1]octane-2-carboxylic acid] | 1.63
26 | O=C(O)[C@@H]1[C@@H]2CC[C@@H](CC2OCc2ccccc2Cl)N1C(=O)C(c1ccccc1)c1ccccc1 (stereo partly drawn) [Compound C294, (1S,3S,4S)-5-((2-chloro-benzyl)oxy)-2-(2,2-diphenylacetyl)-2-azabicyclo [2.2.2]octane-3-carboxylic acid] | 666
27 | O=C(O)[C@@H]1[C@H]2CC[C@@H](CN1C(=O)N(c1ccccc1)c1ccccc1)N2C(=O)N1CCCC1c1ccccc1 (stereo partly drawn) [Compound C138, (1R,2S,5S)-3-(diphenylcarbamoyl)-8-(2-phenylpyrrolidine-1-carbonyl)-3,8-diazabicyclo[3.2.1] octane-2-carboxylic acid] | 11.7
28 | CCN(Cc1ccsc1)C(=O)N1[C@H]2CC[C@@H]1[C@@H](C(=O)O)N(C(=O)C(c1ccccc1)c1ccccc1)C2 [Compound C188, (1R,2S,5S)-3-(2,2-diphenylacetyl)-8-(ethyl(thiophene-3-ylmethyl)carbamoyl)-3,8-diazabicyclo [3.2.1]octane-2-carboxylic acid] | 7.11
